{
  "source": "paper PMC4810081",
  "about": "“Venetoclax (ABT-199) Might Act as a Perpetrator in Pharmacokinetic Drug–Drug Interactions” (Pharmaceutics, 2016)",
  "key": {"[1]": {"system": "CYP1A2", "assay": "Induction assay, CYP1A2 mRNA by real-time RT-PCR in LS180 cells", "type": "in vitro ADME, human", "conditions": "four days, 10 µM", "procedure": "LS180 cells. The human colon adenocarcinoma cell line LS180 (available at ATCC, Manassas, VA, USA) is one of the standard models for investigating pregnane X receptor (PXR) and aryl hydrocarbon receptor (AhR) mediated induction and was thus used for induction experiments. Cells were cultured under standard cell culture conditions with DMEM supplemented with 10% FCS, 2 mM of glutamine, 100 U/mL of penicillin, 100 µg/mL of streptomycin sulfate, and 0.1 mM of nonessential amino acids.\nFor the induction experiments, LS180 cells were seeded in 75 cm^2 culturing flasks and incubated for three days. […]\nRNA was isolated using the GenElute™ Mammalian Total RNA Miniprep Kit, and cDNA was synthesized with the RevertAid™ H Minus First Strand cDNA Synthesis Kit according to the manufacturer's instructions. mRNA expression was quantified by real-time RT-PCR with the LightCycler® 480 (Roche Applied Science, Mannheim, Germany) as described previously. […] Data were evaluated via calibrator-normalized relative quantification with efficiency correction using the LightCycler® 480 software version 1.5 (Roche Applied Science, Mannheim, Germany). […] The following target genes were quantified: CYP1A1, CYP1A2, CYP3A4, ABCB1, ABCC2, ABCG2, SLCO1B1 (coding for OATP1B1), UDP-glucuronosyltransferase 1A3 (UGT1A3), and UGT1A9."}, "[2]": {"target": "T1, CYP2C19 (Homo sapiens, UniProt P33261)", "T1 construct": "purchased Becton Dickinson Biosciences (Heidelberg, Germany)", "T1 sequence (P33261 whole entry)": "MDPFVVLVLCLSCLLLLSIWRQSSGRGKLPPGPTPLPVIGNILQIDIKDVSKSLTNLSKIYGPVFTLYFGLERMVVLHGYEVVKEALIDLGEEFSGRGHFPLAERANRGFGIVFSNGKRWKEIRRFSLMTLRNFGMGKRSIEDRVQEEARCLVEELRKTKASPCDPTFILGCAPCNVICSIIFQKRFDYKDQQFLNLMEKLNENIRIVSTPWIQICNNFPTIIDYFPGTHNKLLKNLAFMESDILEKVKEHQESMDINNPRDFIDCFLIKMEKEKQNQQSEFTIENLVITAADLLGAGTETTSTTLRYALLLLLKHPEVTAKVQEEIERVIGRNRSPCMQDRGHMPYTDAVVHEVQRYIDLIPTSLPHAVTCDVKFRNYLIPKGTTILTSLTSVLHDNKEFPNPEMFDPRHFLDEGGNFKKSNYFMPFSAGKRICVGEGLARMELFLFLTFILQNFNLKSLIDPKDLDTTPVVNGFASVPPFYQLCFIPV", "assay": "CYP2C19 inhibition, CYP2C19/CEC High Throughput Inhibitor Screening Kit", "type": "in vitro ADME", "conditions": "recombinant CYP, fluorogenic substrate", "procedure": "(§1) Inhibition studies for CYP2B6, CYP2D6, CYP2C19 and CYP3A4 were performed with the CYP2B6/EFC, CYP2D6/AMMC, the CYP2C19/CEC, and the CYP3A4/BFC High Throughput Inhibitor Screening Kit according to the manufacturer’s instructions. The kits contain the respective recombinant CYP and fluorogenic substrates, which are blocked dyes emitting a fluorescence signal when cleaved by the enzyme. For testing CYP1A2 inhibition, the P450-Glo CYP1A2 Screening System was used according to the manufacturer’s instructions. The kit contains the luminogenic CYP1A2 substrate luciferin-ME, which is converted by CYP1A2 into luciferin-generating light when incubated with the luciferin detection reagent of the kit. Eight concentrations of venetoclax in duplicates (0.009–20 µM) were tested in the fluorescence assays, and eight concentrations in triplicate (0.05–100 µM) were tested for the luminogenic assay. Each experiment was conducted in triplicate."}, "[3]": {"target": "T2, CYP2D6 (Homo sapiens, UniProt P10635)", "T2 construct": "purchased Becton Dickinson Biosciences (Heidelberg, Germany)", "T2 sequence (P10635 whole entry)": "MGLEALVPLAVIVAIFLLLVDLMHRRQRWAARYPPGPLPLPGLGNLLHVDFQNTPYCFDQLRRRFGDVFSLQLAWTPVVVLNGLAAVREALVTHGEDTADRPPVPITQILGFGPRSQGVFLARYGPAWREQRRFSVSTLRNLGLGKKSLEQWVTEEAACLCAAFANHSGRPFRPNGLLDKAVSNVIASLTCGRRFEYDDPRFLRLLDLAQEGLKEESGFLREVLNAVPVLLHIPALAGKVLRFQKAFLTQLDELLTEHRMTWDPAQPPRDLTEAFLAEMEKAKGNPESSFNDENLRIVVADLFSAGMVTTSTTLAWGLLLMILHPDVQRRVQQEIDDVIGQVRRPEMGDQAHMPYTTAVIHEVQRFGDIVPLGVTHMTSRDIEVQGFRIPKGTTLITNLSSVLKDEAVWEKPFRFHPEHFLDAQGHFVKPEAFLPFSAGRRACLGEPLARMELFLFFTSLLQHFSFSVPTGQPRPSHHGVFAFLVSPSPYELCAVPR", "assay": "CYP2D6 inhibition, CYP2D6/AMMC High Throughput Inhibitor Screening Kit", "type": "in vitro ADME", "conditions": "recombinant CYP, fluorogenic substrate, 0.009–20 µM tested", "procedure": "as §1"}, "[4]": {"system": "P-gp", "assay": "P-gp inhibition, calcein assay in P388/dx cells", "type": "in vitro ADME", "conditions": "mouse, P388/dx cells over-expressing murine mdr1a/b, probe calcein", "procedure": "P388 and P388/dx cells. For testing P-gp inhibition, the murine monocytic leukemia cell line P388/dx over-expressing murine mdr1a/b and the corresponding parental cell line P388 were used. Both cell lines were kindly provided by D. Ballinari (Pharmacia & Upjohn, Milano, Italy). The cells were cultured under standard cell culture conditions with an RPMI 1640 medium supplemented with 10% FCS, 2 mM of glutamine, […] of β-mercaptoethanol, 100 U/mL of penicillin, and 100 µg/mL of streptomycin sulfate. For maintaining P-gp expression, the culture medium for P388/dx was supplemented with 0.43 µM of doxorubicin. One day before the assay, both cell lines were fed with a doxorubicin-free culture medium.\nP-gp inhibition was assessed with the calcein assay in P388/dx cells as described previously. Inhibition of P-gp increases intracellular calcein fluorescence in these cells. Each venetoclax concentration (0.005–50 µM) was tested in octuplet, and the experiment was performed in quadruplicate."}, "[5]": {"system": "CYP1A2", "assay": "Western blot of CYP1A2 protein expression in LS180 cells", "type": "in vitro ADME, human", "conditions": "four days", "procedure": "For the induction experiments, LS180 cells were seeded in 75 cm^2 culturing flasks and incubated for three days. Cells were then treated with a culture medium containing venetoclax (0.01–10 µM) in quintuplicate for four consecutive days. Rifampicin (20 µM) served as a positive control for PXR-driven genes and culture medium as a negative control. All incubation solutions were adjusted to 0.02% DMSO. After harvesting, cells were split for RNA and protein extraction.\nTo exemplarily verify the effects of venetoclax on mRNA expression, protein expressions of P-gp and CYP1A2 were analyzed in triplicate by SDS polyacrylamide gel electrophoresis (SDS-PAGE) and Western blotting. In brief, cell lysates containing 20 µg protein were mixed with 5× sample buffer (containing Tris–HCl, SDS, DTT, bromophenol blue, and glycerol) and subjected to 10% SDS-PAGE. Afterwards, proteins were electrotransferred to nitrocellulose nitrate membranes. Blots were blocked by incubation for 20–40 min with 5% Slim-Fast® (w/v) in phosphate-buffered saline containing 0.1% Tween®20. […] Bands were visualized by enhanced chemiluminescence using the SuperSignal®West Pico Chemiluminescent Substrate Kit and recorded by FluorChem Q SA AlphaView Version 3.2.2, Cell Biosciences (Santa Clara, CA, USA)."}, "[6]": {"target": "T3, BCRP (Homo sapiens, UniProt Q9UNQ0)", "T3 construct": "expressed in transfected cells; host or cells: MDCKII-BCRP (gift of A. H. Schinkel and P. Borst)", "T3 sequence (Q9UNQ0 whole entry)": "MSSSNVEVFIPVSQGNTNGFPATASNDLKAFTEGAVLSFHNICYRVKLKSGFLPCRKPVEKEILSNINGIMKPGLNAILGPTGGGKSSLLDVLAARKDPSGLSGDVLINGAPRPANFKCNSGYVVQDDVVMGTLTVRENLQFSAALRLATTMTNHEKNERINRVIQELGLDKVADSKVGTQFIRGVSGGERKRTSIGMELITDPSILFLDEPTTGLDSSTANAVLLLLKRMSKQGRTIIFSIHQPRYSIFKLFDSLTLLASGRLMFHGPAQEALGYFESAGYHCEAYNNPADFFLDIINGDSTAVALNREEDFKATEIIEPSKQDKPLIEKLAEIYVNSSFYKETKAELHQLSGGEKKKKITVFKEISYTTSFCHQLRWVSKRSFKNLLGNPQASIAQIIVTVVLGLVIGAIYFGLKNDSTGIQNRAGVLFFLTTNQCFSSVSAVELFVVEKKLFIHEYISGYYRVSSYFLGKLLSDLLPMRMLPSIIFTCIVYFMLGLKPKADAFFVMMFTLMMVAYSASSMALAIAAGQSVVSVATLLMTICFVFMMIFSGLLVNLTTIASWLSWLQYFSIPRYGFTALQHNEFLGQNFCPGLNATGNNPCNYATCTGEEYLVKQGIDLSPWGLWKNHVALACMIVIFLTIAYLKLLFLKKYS", "assay": "BCRP inhibition, flow cytometric pheophorbide A assay in MDCKII-BCRP cells", "type": "in vitro ADME", "text": "MDCKII cells. The transporter over-expressing cell lines MDCKII-MDR1 [5], MDCKII-MRP2 [6], and MDCKII-BCRP [7] and the corresponding parental cell line MDCKII were used to assess the sensitivity of cells with and without P-gp, multidrug resistance-associated protein 2 (MRP2/ABCC2), or BCRP expression. Moreover, MDCKII-BCRP cells were used to assess BCRP inhibition by venetoclax. MDCKII over-expressing cell lines were kindly provided by A. H. Schinkel and P. Borst (Amsterdam, The Netherlands). The parental cell line MDCKII (available at ATCC, Manassas, VA, USA) was used as a control. The cells were cultured in Dulbecco’s Modified Eagle’s Medium (DMEM) containing 10% FCS, 2 mM of glutamine, 100 U/mL of penicillin, and 100 µg/mL of streptomycin sulfate.\nFlow cytometric BCRP inhibition assays were conducted in control (MDCKII) and BCRP over-expressing cells (MDCKII-BCRP) using PhA as a fluorescent BCRP substrate as described and validated previously. Inhibition of BCRP leads to an increase in intracellular PhA concentrations. Each experiment was performed in triplicate. Venetoclax was tested from 0.1 up to 100 µM."}, "[7]": {"design": "method as in PMID 26639348, PMID 22184378, PMID 27520294", "conditions": "cited from earlier work"}},
  "data": [
    {"smiles": "CC1(C)CCC(CN2CCN(c3ccc(C(=O)NS(=O)(=O)c4ccc(NCC5CCOCC5)c([N+](=O)[O-])c4)c(Oc4cnc5[nH]ccc5c4)c3)CC2)=C(c2ccc(Cl)cc2)C1", "note": "[Venetoclax]", "values": [
      {"measurement": "mRNA expression of CYP1A2", "setting": "[1]", "result": "induced"},
      {"measurement": "IC50", "setting": "[2]", "result": "14.2 ± 1", "unit": "µM"},
      {"measurement": "IC50 CYP2D6 inhibition", "setting": "[3]", "result": "no inhibition"},
      {"measurement": "IC50", "setting": "[4]", "result": "30 ± 3.7", "unit": "µM"},
      {"measurement": "CYP1A2 protein expression", "setting": "[5]", "result": "induction"},
      {"measurement": "IC50", "setting": "[6]", "result": "19.6 ± 7.3", "unit": "µM"},
      {"measurement": "Therapeutic plasma concentrations", "setting": "[7]", "result": "about 5 µM"}
    ]}
  ]
}
